Assay results as given in patent publication US12281363B2, “Methods for detecting antiviral-drug resistant virus” (Secretary of State for Health and Social Care, priority 2018, dated 2025).
Read-outs that look alike come from different tables or passages of the source.

Test system: HSV-1
Experiment: Plaque reduction assay, HSV-1 clinical isolates on Vero cells
Assay type: cell-based
Conditions: Human alphaherpesvirus 1, Vero
Excerpt: Viral isolates were used to infect a sub-confluent monolayer of Vero cells at a concentration of 75 or 50 plaque forming units (PFU) per well for HSV-1 and HSV-2, respectively. […] CMC medium typically used to create a semisolid interface and prevents indiscrimate viral spreading. Other materials (e.g. agar) may also be used to create this interface.
Cells were fixed with 10% formalin and stained with crystal violet before enumeration of the plaques (microscopic observation or use of fluorescent antibodies for detection is also suitable). The data obtained from these experiments were then expressed as percent inhibition of viral infectivity relative to the no drug control.
Definitions of phenotypic drug susceptibility classification as sensitive or resistant were as follows: ACV, <3 μM or >40 μM; PCV, <10 μM or >40 μM; CDV, <24 μM or >30 μM; FOS, <250 μM or >400 μM; and ACV, <6.5 μM or >40 μM; PCV, <38 μM or >40 μM; FOS, <250 μM or >400 μM for HSV-1 and HSV-2, respectively. Any IC50 values falling in between these sensitive and resistant cut-offs were reported as intermediate resistance.
The phenotype (i.e. reactivity to a drug) of the virus was characterised by the plaque reduction assay as described above.

In the case of `Nc1nc2c(ncn2COCCO)c(=O)[nH]1` [Aciclovir, acyclovir], the IC50 (read-out: Drug susceptibility Aciclovir (ACV), isolate HPG002, HSV-1 pol E992K (2974G>A), also TK insert (G) nt 430-436, pol A1169T) is reported as 3 to 40 µM, the IC50 (read-out: Drug susceptibility Aciclovir (ACV), isolate HPG003, HSV-1 TK Y172S (515A>C)) is reported as 3 to 40 µM and the IC50 (read-out: Drug susceptibility Aciclovir (ACV), isolate HPG005, HSV-1 TK A37V (110C>T)) is reported as < 3 µM. The IC50 (read-out: Drug susceptibility Aciclovir (ACV), isolate HPG005, HSV-1 TK A192T (574G>A)) was < 3 µM, the IC50 (read-out: Drug susceptibility Aciclovir (ACV), isolate HPG006, HSV-1 pol G121S (361G>A), also a TK resistance mutation (footnote a)) was > 40 µM and the IC50 (read-out: Drug susceptibility Aciclovir (ACV), isolate HPG008, HSV-1 TK V204G (611T>G)) was 3 to 40 µM. For the same compound, the IC50 (read-out: Drug susceptibility Aciclovir (ACV), isolate HPG009, HSV-1 pol E992K (2974G>A), also pol A1169T) was < 3 µM, the IC50 (read-out: Drug susceptibility Aciclovir (ACV), isolate HPG010, HSV-1 TK Q125* (373C>T)) was 3 to 40 µM and the IC50 (read-out: Drug susceptibility Aciclovir (ACV), isolate HPG011, HSV-1 TK Q125* (373C>T)) was 3 to 40 µM. The IC50 (read-out: Drug susceptibility Aciclovir (ACV), isolate HPG012, HSV-1 pol G985E (2954G>A), also TK A93V) was > 40 µM, the IC50 (read-out: Drug susceptibility Aciclovir (ACV), isolate HPG013, HSV-1 TK M121I (363G>A)) was 3 to 40 µM and the IC50 (read-out: Drug susceptibility Aciclovir (ACV), isolate HPG013, HSV-1 pol D83A (248A>C), also TK M121I, pol A1169T) was 3 to 40 µM. The IC50 (read-out: Drug susceptibility Aciclovir (ACV), isolate HPG014, HSV-1 pol A1115T (3343G>A)) was < 3 µM, the IC50 (read-out: Drug susceptibility Aciclovir (ACV), isolate HPG014, HSV-1 pol R993C (2977C>T)) was < 3 µM and the IC50 (read-out: Drug susceptibility Aciclovir (ACV), isolate HPG014, HSV-1 pol T54A (160A>G)) was < 3 µM. The IC50 (read-out: Drug susceptibility Aciclovir (ACV), isolate HPG015, HSV-1 pol 966stop or F965_I966insF (2892_2893insT to 2895_2896insT)) was < 3 µM, the IC50 (read-out: Drug susceptibility Aciclovir (ACV), isolate HPG016, HSV-1 pol A1169T (3505G>A)) was < 3 µM and the IC50 (read-out: Drug susceptibility Aciclovir (ACV), isolate HPG018, HSV-1 TK frameshift (881delC to 885delC)) was 3 to 40 µM. For the same compound, the IC50 (read-out: Drug susceptibility Aciclovir (ACV), isolate HPG018, HSV-1 pol P1199T (3595C>A), also TK deletion (C) nt 881-885, pol A1169T) was 3 to 40 µM, the IC50 (read-out: Drug susceptibility Aciclovir (ACV), isolate HPG019, HSV-1 pol K750T (2249A>C), also TK deletion (G) nt 430-436, pol A1169T) was > 40 µM and the IC50 (read-out: Drug susceptibility Aciclovir (ACV), isolate HPG020, HSV-1 pol S911N (2732G>A), also pol A1169T) was < 3 µM. The IC50 (read-out: Drug susceptibility Aciclovir (ACV), isolate HPG021, HSV-1 pol R681Q (2042G>A), also TK deletion (G) nt 430-436) was > 40 µM, the IC50 (read-out: Drug susceptibility Aciclovir (ACV), isolate HPG021, HSV-1 pol T839A (2515A>G), also TK deletion (G) nt 430-436) was > 40 µM and the IC50 (read-out: Drug susceptibility Aciclovir (ACV), isolate HPG025, HSV-1 pol E850Q (2548G>C), also TK R216C) was 3 to 40 µM. For the same compound, the IC50 (read-out: Drug susceptibility Aciclovir (ACV), isolate HPG026, HSV-1 pol E850Q (2548G>C), also TK R216C, pol A1169T) was 3 to 40 µM, the IC50 (read-out: Drug susceptibility Aciclovir (ACV), isolate HPG027, HSV-1 TK V204G (611T>G), also pol S914L, A1169AT) was > 40 µM and the IC50 (read-out: Drug susceptibility Aciclovir (ACV), isolate HPG027, HSV-1 pol S914L (2741C>T), also TK V204G, pol A1169T) was > 40 µM. The IC50 (read-out: Drug susceptibility Aciclovir (ACV), isolate HPG029, HSV-1 TK Y172S (515A>C)) was > 40 µM, the IC50 (read-out: Drug susceptibility Aciclovir (ACV), isolate HPG031, HSV-1 pol E1120A (3359A>C), also a TK resistance mutation (footnote e)) was 3 to 40 µM and the IC50 (read-out: Drug susceptibility Aciclovir (ACV), isolate HPG031, HSV-1 pol G139R (415G>C or 415G>A), also a TK resistance mutation (footnote e)) was 3 to 40 µM. It also gave an IC50 (read-out: Drug susceptibility Aciclovir (ACV), isolate HPG032, HSV-1 TK 183* (437_438insA)) of 3 to 40 µM, an IC50 (read-out: Drug susceptibility Aciclovir (ACV), isolate HPG033, HSV-1 TK I358L (1072A>C), also TK T287M) of 3 to 40 µM and an IC50 (read-out: Drug susceptibility Aciclovir (ACV), isolate HPG033, HSV-1 pol N1046T (3137A>C), also TK T287M, pol A1169T) of 3 to 40 µM. For the same compound, the IC50 (read-out: Drug susceptibility Aciclovir (ACV), isolate HPG035, HSV-1 pol S239L (716C>T), also pol S724N) was 3 to 40 µM, the IC50 (read-out: Drug susceptibility Aciclovir (ACV), isolate HPG037, HSV-1 TK L69M (205>A), also TK Y239H) was 3 to 40 µM and the IC50 (read-out: Drug susceptibility Aciclovir (ACV), isolate HPG037, HSV-1 TK R256W (766C>T)) was 3 to 40 µM. For the same compound, the IC50 (read-out: Drug susceptibility Aciclovir (ACV), isolate HPG037, HSV-1 TK Y239H (715T>C)) was 3 to 40 µM, the IC50 (read-out: Drug susceptibility Aciclovir (ACV), isolate HPG039, HSV-1 TK 85* or H58fs (169delC, 170delC, 171delC, or 172delC)) was 3 to 40 µM and the IC50 (read-out: Drug susceptibility Aciclovir (ACV), isolate HPG040, HSV-1 pol S911N (2732G>A), also TK deletion (C) nt 896-900, pol A1169T) was > 40 µM. For the same compound, the IC50 (read-out: Drug susceptibility Aciclovir (ACV), isolate HPG041, HSV-1 pol S911N (2732G>A), also pol A1169T) was < 3 µM, the IC50 (read-out: Drug susceptibility Aciclovir (ACV), isolate HPG042, HSV-1 TK frameshift (881delC to 885delC)) was 3 to 40 µM and the IC50 (read-out: Drug susceptibility Aciclovir (ACV), isolate HPG042, HSV-1 pol A972V (2915C>T), also TK deletion (C) nt 881-885, pol A1169T) was > 40 µM. For the same compound, the IC50 (read-out: Drug susceptibility Aciclovir (ACV), isolate HPG042, HSV-1 pol G22R (64G>A), also TK deletion (C) nt 881-885, pol A1169T) was > 40 µM, the IC50 (read-out: Drug susceptibility Aciclovir (ACV), isolate HPG043, HSV-1 TK 183* (437_438insA)) was 3 to 40 µM and the IC50 (read-out: Drug susceptibility Aciclovir (ACV), isolate HPG045, HSV-1 TK L49R (146T>G)) was 3 to 40 µM. It also gave an IC50 (read-out: Drug susceptibility Aciclovir (ACV), isolate HPG045, HSV-1 pol L419I (1255C>A), also TK L49R, pol A1169T) of 3 to 40 µM, an IC50 (read-out: Drug susceptibility Aciclovir (ACV), isolate HPG046, HSV-1 TK I166N (497T>A)) of 3 to 40 µM and an IC50 (read-out: Drug susceptibility Aciclovir (ACV), isolate HPG047, HSV-1 pol E680 (2039A>C), also TK deletion (C) nt 548-553, pol A1169T) of 3 to 40 µM. For the same compound, the IC50 (read-out: Drug susceptibility Aciclovir (ACV), isolate HPG050, HSV-1 TK Q34* (100C>T)) was > 40 µM, the IC50 (read-out: Drug susceptibility Aciclovir (ACV), isolate HPG051, HSV-1 pol D83A (248A>C), also TK R176stop) was 3 to 40 µM and the IC50 (read-out: Drug susceptibility Aciclovir (ACV), isolate HPG052, HSV-1 TK Q34* (100C>T)) was 3 to 40 µM. The IC50 (read-out: Drug susceptibility Aciclovir (ACV), isolate HPG053, HSV-1 pol L802R + A834S (2405T>G, 2500G>T), also TK R176W) was > 40 µM, the IC50 (read-out: Drug susceptibility Aciclovir (ACV), isolate HPG053, HSV-1 pol S911N (2732G>A), also TK R176W, pol A1169T) was > 40 µM and the IC50 (read-out: Drug susceptibility Aciclovir (ACV), isolate HPG054, HSV-1 pol E992K (2974G>A), also TK insert (G) nt 430-436, pol A1169T) was 3 to 40 µM. It also gave an IC50 (read-out: Drug susceptibility Aciclovir (ACV), isolate HPG055, HSV-1 TK V204G (611T>G), also pol A1169AT) of 3 to 40 µM.
